The subject of series [1] is Leishmania amazonensis promastigotes. Description: microbe, parasite or virus in culture. In kind it is cell-based. The note with it: for SI (CC50/EC50), promastigotes: CC50 J774A.1 / EC50 promastigotes; for EC50: Leishmania amazonensis. As for the experimental part:
(§1) Cells - Leishmania (L.) amazonensis (MHOM/BR/75/Josefa) and green fluorescent protein (GFP)-labelled L. amazonensis (IFLA/BR/67/PH8) reference strains in their promastigote form were grown in 24-well microtiter plates containing 2 mL of Grace’s insect medium supplemented with 20% heat-inactivated FCS, 2 mM L-glutamine, 100 U/mL penicillin, and 100 µg/mL streptomycin, as previously described.[11] ^, [12] The promastigotes were collected for the experiments when the highest proportion of infective metacyclics was reached (6th day of culture). The J774.A1 murine macrophage cell line was obtained from the cell bank of Rio de Janeiro (NCE/UFRJ). Macrophages were cultured in RPMI-1640 medium supplemented with 10% FCS, 2 mM L-glutamine, 100 U/mL penicillin, and 100 μg/mL streptomycin at 36.5 °C in a humidified incubator containing 5% CO2.
(§2) In vitro assays of antileishmanial activity and macrophage cytotoxicity - Parasites at different cell concentrations (5 x 10^6, 1 x 10^7, 1 x 10^8, and 1 x 10^9 cells/mL), or J774.A1 macrophages at 1 x 10^6 cells/mL, were treated with increasing concentrations of MIL or its analogues, TC387, TC388, and TC437 (Fig. 1), which were initially diluted in an ethanol/DMSO mixture (1:1, v/v) at 25 or 250 mg/mL and then diluted in culture medium supplemented with 10% FCS. Promastigote or macrophage samples (100 µL) containing six different concentrations of the compounds (5-160 μM for promastigotes and 200-6,400 μM for macrophages) were prepared in 96-well microtiter plates and incubated for 24 h at 26 °C for promastigotes or 36.5 °C for macrophages. Cell viability was quantified by measuring the reduction of MTT to formazan by mitochondrial reductases. Formazan absorbance was read on the enzyme-linked immunosorbent assay (ELISA) reader at 550 nm, and the half maximal effective concentration (EC50) or half-maximal cytotoxic concentration (CC50) values were determined based on the best fit of the sigmoidal curve on the absorbance data versus the compound concentrations.

Series [2] deals with amastigotes internalised within J774.A1 macrophages. Details: method as in Scariot et al. 13. As to conditions: ref Scariot et al. 13; cited from earlier work.
The test system of series [3] is plasma membranes of Leishmania amazonensis promastigotes. The series can be described thus: Best fit of eq. 3 to EC50 versus cell concentration (biophysical parameters). In kind it is cell-based. As to conditions: for EC50: Leishmania amazonensis, read-out: cw50, concentration in the aqueous phase that inhibits parasite growth by half; for cm50, concentration in the membrane that inhibits parasite growth by half: from KM/W and cw50. From the text: In cell suspension assays, the concentration of lipophilic compounds within the membrane can exceed that in the aqueous medium by over 10,000-fold (Log KM/W > 4). In a well-diluted cell suspension, the quantity of compound associated with the membrane can be negligible due to the relatively small membrane volume; consequently, the compound predominantly resides in the aqueous phase, rendering its EC50 value effectively equivalent to its concentration in that phase, denoted as cw50. However, as cell concentration increases, the enhanced membrane volume results in a significant elevation of the EC50 compared to cw50. The equation that describes the variation of MIL EC50 values in relation to cell concentration in the assay has been derived and is expressed as follows:[10] ^, [11]
EC50=[(Vmc. cc)^-1+ KM/W/ (Vmc . cc)^-1+1)] cw50 (3)
Where Vmc is the estimated cell membrane volume for an L. amazonensis promastigote, previously estimated as 8.17 x 10^-13 mL,[11] and cc is the number of cells per mL. The parameters KM/W and cw50 are covariant in eq. 3, and their values can be determined as best-fit parameters of eq. For very dilute samples, the plasma membrane content is small, and the EC50 and cw50 values are practically the same; assuming in eq. 3 that (Vmc . cc)^-1 >> KM/W, the EC50 = ~cw50. For high concentrations of cells, a remarkable amount of the compound goes to the membrane, and the EC50 value is much higher than the cw50 value. The cm50 value can also be determined from the […] relationship.

The test system of series [4] is L. amazonensis promastigotes. Details: method as in Scariot et al. 13. The note with it: ref Scariot et al. 13; cited from earlier work.
The test system of series [5] is GFP-labelled L. amazonensis amastigotes within J774.A1 macrophages. Description: microbe, parasite or virus in culture. In kind it is cell-based, Leishmania amazonensis. The note with it: for Minimum concentration required to significantly reduce the percentage of macrophages infected with GFP-expressing amastigotes / Minimum concentration required to significantly decrease the mean fluorescence intensity: 24 h of treatment; for Minimum concentration required to significantly reduce the percentage of macrophages infected with GFP-expressing amastigotes: % GFP+ cells; for Minimum concentration required to significantly decrease the mean fluorescence intensity: MFI; for SI (CC50/EC50), amastigotes: CC50 J774A.1 / EC50 amastigotes; for EC50: Leishmania amazonensis, intracellular amastigotes in J774.A1, 24 h treatment, % infected cells, read-out: EC50 ± SD, amastigotes. The procedure:
J774.A1 macrophage infection - GFP-labelled L. amazonensis was cultivated in Grace’s insect medium supplemented as described above. The GFP-labelled parasites were selected using 30 μg/mL hygromycin B.[21] J774.A1 macrophages were cultured in RPMI-1640 medium supplemented with 10% FCS, 2 mM L-glutamine, 11 mM sodium bicarbonate, 100 U/mL penicillin, and 100 µg/mL streptomycin. A sample with 4 x 10^6 cells/mL was infected with GFP-L. amazonensis (five parasites/cell) from six-day cultures for 24 h. Following infection, the cells were washed with 1x phosphate-buffered saline (PBS) to remove non-internalised parasites and cultured for an additional 24 h in the presence of MIL or its analogues at different concentrations (7.5-240 μM).
After cooling to ~4 °C, samples were collected by mechanical harvesting of adherent cells, washed twice with 1x PBS, and fixed with 1% paraformaldehyde for flow cytometry analysis using a BD Accuri™ C6 Flow Cytometry instrument (BD Bioscience, San Jose, CA, USA). Macrophages were selected by forward versus side scatter (FSC vs SSC). The data were analysed using FCS Express software (De Novo Software^TM, Glendale, CA, USA). The percentage of cells expressing GFP^+ (% infected cells) and mean fluorescence intensity (estimated amount of internalised parasites) were evaluated. The mean EC50 values were determined based on the best-fit sigmoidal curve plotted for infection percentage versus compound concentration, considering the maximum and minimum percentages of infected cells.

Series [6] in a line: Macrophage cytotoxicity (MTT cell viability). In kind it is cell-based, murine. The note with it: mouse, J774.A1 macrophages, J774A.1 cells. As for the experimental part: as §1, §2
Series [7] can be described thus: Haemolytic potential in PBS. In kind it is cell-based. As to conditions: human, washed erythrocytes in PBS, haematocrit 2%, 2 h at 36.5 °C, read-out: Erythrocytes in PBS - % haemolysis; for hemolysis at 2 h, 6.6 mM: 6.6 mM (22 times 300 µM). As for the experimental part: To assess the haemolytic potential in PBS, blood was initially diluted threefold in PBS and centrifuged at 800 × g for 10 min at 4 °C. Plasma and white blood cells were removed, and the remaining cells were resuspended in PBS. Erythrocytes were washed twice in PBS, discarding the supernatant after centrifugation. Erythrocytes were then added to a micellar suspension of the compounds at various concentrations in PBS (0.3-10 mM), achieving a final haematocrit of 2%. Samples were incubated for 2 h at 36.5 ± 1 °C, and haemolysis percentages and HC50 values were determined as described above.

The nature of series [8]: Haemolytic potential in whole blood. In kind it is cell-based, human. As to conditions: human, whole blood reconstituted from plasma and blood cells, 24 h at 7 °C, read-out: Whole blood - % haemolysis. As for the experimental part:
(§3) Haemolytic potential in whole blood and PBS - Blood was collected from a university blood bank, adhering to an approved protocol by the Ethics Committee for Human and Animal Medical Research at Hospital das Clínicas, Universidade Federal de Goiás (CAAE: 81316417.1.0000.5078). To evaluate the haemolytic potential of MIL and its analogues (TC387, TC388, and TC437) in whole blood, plasma was separated by centrifugation at 1800 × g for 10 min at 4 °C. Next, 58 µL of plasma samples containing different concentrations of the compounds were prepared (in this case the compounds were diluted directly in blood plasma to final concentrations in the range of 2.5-12.5 mM), and 42 µL of the blood cells (100%) were added to each sample to reconstitute the whole blood. Samples were incubated for 24 h at 7 ± 1 °C, and several agitations were made in this period. After incubation, 1.4 mL PBS was added to each sample, and the tubes were centrifuged (3500 x g for 10 min). The percentage of haemolysis was determined based on the absorbance of haemoglobin in the supernatant at 540 nm relative to the sample without treatment (control). The compound concentration required for 50% haemolysis (HC50) was calculated by fitting the percentage of haemolysis versus compound concentration data to a sigmoidal curve.

In the next series the test system is whole blood. The series can be described thus: Haemolytic potential in whole blood. In kind it is cell-based, human. As to conditions: 7.5 mM, 24 h at 7 °C. The procedure:
as §3

The mark [9] stands for this setting: 24 h, read-out: EC50 ± SD, promastigotes, 24 h at 26 °C, MTT.
The mark [10] stands for this setting: best-fit parameter of eq. 3, equivalent to EC50 for diluted samples.

Read-outs that look alike come from different tables or passages of the source.

Take `CCCCCCCCCCCCCCCCOP(=O)([O-])OCC[N+](C)(C)C` [MIL, hexadecylphosphocholine, reference compound]: the “SI (CC50/EC50), promastigotes” value in series [1] is reported as “around 6”; in series [1] (listed as Miltefosine), 6. Besides, the EC50 is 13 ± 3 µM in [1] (setting [9]); approximately 13 µM in [1] (read-out: EC50, promastigotes, cell concentration 1 x 10^7 parasites/mL); approximately 660 µM in series [1] (read-out: EC50, promastigotes, cell concentration 1 x 10^9 parasites/mL); 9.4 ± 1.2 µM in series [3] (setting [10]); 17 ± 3 µM in series [5]. Besides, the results for the IC50 in series [2] and in series [4] were 2 µM and 21 µM, respectively. In addition, the “cm50, concentration in the membrane that inhibits parasite growth by half” value in [3] is listed as 0.81 ± 0.07 (B) M. The “Minimum concentration required to significantly reduce the percentage of macrophages infected with GFP-expressing amastigotes” value in [5] is on record as 15 µM. For the same compound, in [5], the “Minimum concentration required to significantly decrease the mean fluorescence intensity” value is recorded as 15 µM. In addition, the “SI (CC50/EC50), amastigotes” value in [5] was found to be 5. Also, it took 77 ± 23 µM to reach half-maximal cytotoxicity in series [6] (CC50 at 24 h).

With `COc1cccc(CCCCCCCCOP(=O)([O-])OCC[N+](C)(C)C)c1` [TC387], in series [1], the “SI (CC50/EC50), promastigotes” value came out at 34. Besides, the EC50 in series [1] (setting [9]) stood at 27 ± 9 µM. In addition, the EC50 in [3] (setting [10]) worked out at 27.2 ± 2.9 µM. Further, the “cm50, concentration in the membrane that inhibits parasite growth by half” value in [3] is 0.53 ± 0.09 (A) M. In series [7], the hemolysis at 2 h, 3.3 mM amounted to 26.2%; the hemolysis at 2 h, 6.6 mM was less than 50%; the hemolysis at 2 h, 10 mM was determined as 60.4%. In addition, in [5], the “Minimum concentration required to significantly reduce the percentage of macrophages infected with GFP-expressing amastigotes” value came to 7.5 µM; the “Minimum concentration required to significantly decrease the mean fluorescence intensity” value is recorded as 7.5 µM; the “SI (CC50/EC50), amastigotes” value amounted to 80; the EC50 amounted to 12 ± 3 µM. Moreover, in series [8], the hemolysis at 24 h, 7.5 mM was found to be 20.5% and the hemolysis at 24 h, 10 mM worked out at 75.3%. Moreover, the “Whole blood - % haemolysis” value in the series with whole blood turned out to be 22.5 ± 3.7%. Moreover, it took 956 ± 277 µM to reach half-maximal cytotoxicity in series [6] (CC50 at 24 h).

Regarding `COC(=O)c1c(CCCCCCCCOP(=O)([O-])OCC[N+](C)(C)C)cccc1OC` [TC388], the “SI (CC50/EC50), promastigotes” value in [1] stood at 42. Moreover, the EC50 in series [1] (setting [9]) was determined as 39 ± 11 µM. For the same compound, in [3] (setting [10]), the EC50 amounted to 38.9 ± 3.8 µM. Also, in series [3], the “cm50, concentration in the membrane that inhibits parasite growth by half” value is 0.50 ± 0.13 (A) M. For the same compound, in series [7], the hemolysis at 2 h, 3.3 mM amounted to 8.5% and the hemolysis at 2 h, 10 mM is 25.3%. Besides, in series [5], the “Minimum concentration required to significantly reduce the percentage of macrophages infected with GFP-expressing amastigotes” value is 7.5 µM, the “Minimum concentration required to significantly decrease the mean fluorescence intensity” value is given as 7.5 µM and the EC50 is 10 ± 2 µM. Besides, in series [8], the hemolysis at 24 h, 10 mM was found to be 14.5%. The hemolysis at 24 h, 12.5 mM in series [8] (12.5 mM) was 24.2 ± 6.4%. Besides, the CC50 – broadly, the concentration giving 50% cytotoxicity – at 24 h in series [6] was 1630 ± 404 µM.

Take `COc1cc(CCCCCCCCOP(=O)([O-])OCC[N+](C)(C)C)cc(OC)c1` [TC437]: the “SI (CC50/EC50), promastigotes” value in series [1] was determined as 29. For the same compound, in series [1] (setting [9]), the EC50 was 24 ± 7 µM. Besides, in series [3], the EC50 was 22.8 ± 3.7 µM and the “cm50, concentration in the membrane that inhibits parasite growth by half” value is listed as 0.56 ± 0.11 (A) M. In addition, in series [7], the hemolysis at 2 h, 3.3 mM is 29.8%; the hemolysis at 2 h, 6.6 mM is less than 50%; the hemolysis at 2 h, 10 mM came out at 65.4%. In [5], the “Minimum concentration required to significantly reduce the percentage of macrophages infected with GFP-expressing amastigotes” value is on record as 15 µM; the “Minimum concentration required to significantly decrease the mean fluorescence intensity” value is reported as 7.5 µM; the “SI (CC50/EC50), amastigotes” value amounted to 43; the EC50 stood at 16 ± 3 µM. Besides, in [8], the hemolysis at 24 h, 7.5 mM is 40.6 ± 7.4% and the hemolysis at 24 h, 10 mM is 92.5%. In series [6], this compound displayed a CC50 at 24 h of 692 ± 212 µM.

Values taken from article PMC12113339, “Miltefosine analogues with comparable antileishmanial activity and significantly reduced macrophage cytotoxicity” (Memórias do Instituto Oswaldo Cruz, 2025).
